The text below walks through data of patent publication US20240067632A1, “WEE1 Degrading Compounds and Uses Thereof” (Bristol-Myers Squibb Company, priority 2022, published 2024).

One test deals with T1, WEE1 (Homo sapiens, UniProt P30291+Q96SW2).
T1 construct: C-terminal ePL-tagged (DiscoverX, Fremont, CA) full-length WEE1 expression construct; expressed in transfected cells; host or cells: LentiX-HEK293T (Invitrogen), lentiviral transduction; co-expressing GSPT1-GN (G576N, lacking the first 158 amino acids)
Briefly: WEE1-ePL degradation assay (LentiX-WEE1-ePL-GSPT1-ND cells, InCELL Hunter luminescence, 4 h). The test is classed as cell-based. The settings on record: 293T-LentiX WEE1-ePL cells; for 293T-LentiX WEE1-ePL Degradation 4 hr (Ymin): lower limit of the fit (0 = luciferase inhibitor, Ymax = DMSO control); for DC50: read-out: 293T-LentiX WEE1-ePL Degradation 4 hr (EC50). Put shortly:
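HEK293T cells stably expressing C-terminal ePL-tagged full-length WEE1, 2500 cells/well, treated 4 h at 37° C with a 10-point 3-fold series from 1 or 10 uM. Remaining WEE1-ePL read by InCELL Hunter luminescence after 30 min. EC50 came from a four-parameter logistic fit, with Ymax set from DMSO control.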

The test system of another test is MKN45 cells. Nature of the test: MKN45 cell proliferation assay (Cell-Titer-Glo, 120 h). The test is classed as cell-based. The settings on record: for EC50: Homo sapiens, MKN-45, 120 h, Cell-Titer-Glo, growth inhibition, read-out: MKN45 Cell Prolif. 120 hr (EC50); for MKN45 Cell Prolif. 120 hr (Ymin-Obs): minimal percent of DMSO control observed in the concentrations tested. Put shortly:
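Cells seeded at 400/well onto pre-printed 10-point half-log dilutions (top 1 or 10 uM, 0.1% DMSO final), in triplicate, and grown 120 h at 37 C. Viability by Cell-Titer-Glo luminescence, blank-subtracted and normalised to DMSO; EC50 from four-parameter logistic fit, with observed minimal % of control recorded as Ymin-obs.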

In the case of `Cc1ccnc(CN2CC[C@H](Oc3ccc4c(c3)CN(C3CCC(=O)NC3=O)C4=O)C2)c1` (stereo partly drawn) [3-(5-{[(3S)-1-[(4-methylpyridin-2-yl)methyl]pyrrolidin-3-yl]oxy}-1-oxo-2,3-dihydro-1H-isoindol-2-yl)piperidine-2,6-dione], on WEE1, the “293T-LentiX WEE1-ePL Degradation 4 hr (Ymin)” value was 38.55 and the DC50 was found to be 65.4 nM. Moreover, in the test with MKN45 cells, the concentration for a half-maximal effect (EC50) (as a rule, the midpoint of the concentration-response curve) came out at 1330 nM and the “MKN45 Cell Prolif. 120 hr (Ymin-Obs)” value worked out at 42.67.

With `O=C1CCC(N2Cc3cc(O[C@H]4CCN(Cc5cnc6ccc(F)c(F)c6c5)C4)ccc3C2=O)C(=O)N1` (stereo partly drawn) [3-(5-{[(3S)-1-[(5,6-difluoroquinolin-3-yl)methyl]pyrrolidin-3-yl]oxy}-1-oxo-2,3-dihydro-1H-isoindol-2-yl)piperidine-2,6-dione], on WEE1, the “293T-LentiX WEE1-ePL Degradation 4 hr (Ymin)” value is reported as 43.98 and the DC50 was found to be 13.3 nM. Further, in the test on MKN45 cells, the EC50 is 166 nM and the “MKN45 Cell Prolif. 120 hr (Ymin-Obs)” value was found to be 44.73.

As to `Cc1cc(CN2CC[C@H](Oc3ccc4c(c3)CN(C3CCC(=O)NC3=O)C4=O)C2)cnc1C` (stereo partly drawn) [3-(5-{[(3S)-1-[(5,6-dimethylpyridin-3-yl)methyl]pyrrolidin-3-yl]oxy}-1-oxo-2,3-dihydro-1H-isoindol-2-yl)piperidine-2,6-dione], on WEE1, the “293T-LentiX WEE1-ePL Degradation 4 hr (Ymin)” value was 35.675 and the DC50 was determined as 25.9 nM. In the test on MKN45 cells, the EC50 is 955 nM and the “MKN45 Cell Prolif. 120 hr (Ymin-Obs)” value was found to be 43.03.

Turning to `Cc1ccc2c(F)c(CN3CC[C@H](Oc4ccc5c(c4)CN(C4CCC(=O)NC4=O)C5=O)C3)ccc2n1` (stereo partly drawn) [3-(5-{[(3S)-1-[(5-fluoro-2-methylquinolin-6-yl)methyl]pyrrolidin-3-yl]oxy}-1-oxo-2,3-dihydro-1H-isoindol-2-yl)piperidine-2,6-dione], at WEE1, the “293T-LentiX WEE1-ePL Degradation 4 hr (Ymin)” value is given as 28.365 and the DC50 turned out to be 1.51 nM. For the same compound, in the test on MKN45 cells, the EC50 was 8.08 nM and the “MKN45 Cell Prolif. 120 hr (Ymin-Obs)” value was found to be 9.22.

`O=C1CCC(N2Cc3cc(O[C@H]4CCN(Cc5cc6c(F)cccc6cn5)C4)ccc3C2=O)C(=O)N1` (stereo partly drawn) [3-(5-{[(3S)-1-[(5-fluoroisoquinolin-3-yl)methyl]pyrrolidin-3-yl]oxy}-1-oxo-2,3-dihydro-1H-isoindol-2-yl)piperidine-2,6-dione]: on WEE1, the “293T-LentiX WEE1-ePL Degradation 4 hr (Ymin)” value is 43.45 and the DC50 is 13.3 nM. For the same compound, in the test with MKN45 cells, the EC50 came to 185 nM and the “MKN45 Cell Prolif. 120 hr (Ymin-Obs)” value stood at 53.33.

On to `O=C1CCC(N2Cc3cc(O[C@H]4CCN(Cc5cnc6cccc(F)c6c5)C4)ccc3C2=O)C(=O)N1` (stereo partly drawn) [3-(5-{[(3S)-1-[(5-fluoroquinolin-3-yl)methyl]pyrrolidin-3-yl]oxy}-1-oxo-2,3-dihydro-1H-isoindol-2-yl)piperidine-2,6-dione], for which, at WEE1, the “293T-LentiX WEE1-ePL Degradation 4 hr (Ymin)” value was found to be 31.52 and the DC50 stood at 12 nM. Also, in the test on MKN45 cells, the half-maximal effective concentration (EC50) was found to be 309 nM and the “MKN45 Cell Prolif. 120 hr (Ymin-Obs)” value amounted to 35.14.

Take `COc1cncc(CN2CC[C@H](Oc3ccc4c(c3)CN(C3CCC(=O)NC3=O)C4=O)C2)c1C` (stereo partly drawn) [3-(5-{[(3S)-1-[(5-methoxy-4-methylpyridin-3-yl)methyl]pyrrolidin-3-yl]oxy}-1-oxo-2,3-dihydro-1H-isoindol-2-yl)piperidine-2,6-dione]: at WEE1, the “293T-LentiX WEE1-ePL Degradation 4 hr (Ymin)” value was 61 and the DC50 amounted to 28.5 nM. In the test with MKN45 cells, the EC50 stood at 833 nM and the “MKN45 Cell Prolif. 120 hr (Ymin-Obs)” value is 59.99.

For the compound `COc1cncc(CN2CC[C@H](Oc3ccc4c(c3)CN(C3CCC(=O)NC3=O)C4=O)C2)c1` (stereo partly drawn) [3-(5-{[(3S)-1-[(5-methoxypyridin-3-yl)methyl]pyrrolidin-3-yl]oxy}-1-oxo-2,3-dihydro-1H-isoindol-2-yl)piperidine-2,6-dione], on WEE1, the “293T-LentiX WEE1-ePL Degradation 4 hr (Ymin)” value is reported as 37.55 and the DC50 is 61.4 nM. Further, in the test on MKN45 cells, the EC50 was determined as 3320 nM and the “MKN45 Cell Prolif. 120 hr (Ymin-Obs)” value was found to be 48.12.

On to `Cc1cccc2cnc(CN3CC[C@H](Oc4ccc5c(c4)CN(C4CCC(=O)NC4=O)C5=O)C3)cc12` (stereo partly drawn) [3-(5-{[(3S)-1-[(5-methylisoquinolin-3-yl)methyl]pyrrolidin-3-yl]oxy}-1-oxo-2,3-dihydro-1H-isoindol-2-yl)piperidine-2,6-dione], for which, on WEE1, the “293T-LentiX WEE1-ePL Degradation 4 hr (Ymin)” value worked out at 31.91 and the DC50 was 4.62 nM. Also, in the test on MKN45 cells, the EC50 is 86.1 nM and the “MKN45 Cell Prolif. 120 hr (Ymin-Obs)” value was 19.01.

For the compound `Cc1cccc2ncc(CN3CC[C@H](Oc4ccc5c(c4)CN(C4CCC(=O)NC4=O)C5=O)C3)cc12` (stereo partly drawn) [3-(5-{[(3S)-1-[(5-methylquinolin-3-yl)methyl]pyrrolidin-3-yl]oxy}-1-oxo-2,3-dihydro-1H-isoindol-2-yl)piperidine-2,6-dione], on WEE1, the “293T-LentiX WEE1-ePL Degradation 4 hr (Ymin)” value is on record as 26.805 and the DC50 is 5.31 nM. Also, in the test with MKN45 cells, the EC50 worked out at 37 nM and the “MKN45 Cell Prolif. 120 hr (Ymin-Obs)” value is listed as 12.09.

Take `O=C1CCC(N2Cc3cc(O[C@H]4CCN(Cc5cnc6ccc(F)cc6c5)C4)ccc3C2=O)C(=O)N1` (stereo partly drawn) [3-(5-{[(3S)-1-[(6-fluoroquinolin-3-yl)methyl]pyrrolidin-3-yl]oxy}-1-oxo-2,3-dihydro-1H-isoindol-2-yl)piperidine-2,6-dione]: at WEE1, the “293T-LentiX WEE1-ePL Degradation 4 hr (Ymin)” value is recorded as 30.015 and the DC50 was 9.19 nM. For the same compound, in the test with MKN45 cells, the EC50 came to 64.5 nM and the “MKN45 Cell Prolif. 120 hr (Ymin-Obs)” value is reported as 16.03.

Turning to `CN1CCc2ncc(CN3CC[C@H](Oc4ccc5c(c4)CN(C4CCC(=O)NC4=O)C5=O)C3)cc2C1` (stereo partly drawn) [3-(5-{[(3S)-1-[(6-methyl-5,6,7,8-tetrahydro-1,6-naphthyridin-3-yl)methyl]pyrrolidin-3-yl]oxy}-1-oxo-2,3-dihydro-1H-isoindol-2-yl)piperidine-2,6-dione], on WEE1, the “293T-LentiX WEE1-ePL Degradation 4 hr (Ymin)” value worked out at 34 and the DC50 stood at 216 nM. Moreover, in the test with MKN45 cells, the half-maximal effective concentration (EC50) was 5050 nM and the “MKN45 Cell Prolif. 120 hr (Ymin-Obs)” value amounted to 33.405.

As to `Cc1ccc2ncc(CN3CC[C@H](Oc4ccc5c(c4)CN(C4CCC(=O)NC4=O)C5=O)C3)cc2c1` (stereo partly drawn) [3-(5-{[(3S)-1-[(6-methylquinolin-3-yl)methyl]pyrrolidin-3-yl]oxy}-1-oxo-2,3-dihydro-1H-isoindol-2-yl)piperidine-2,6-dione], on WEE1, the “293T-LentiX WEE1-ePL Degradation 4 hr (Ymin)” value is on record as 29.6 and the DC50 turned out to be 9.38 nM. In the test on MKN45 cells, the concentration giving a half-maximal response (EC50) was 33.6 nM and the “MKN45 Cell Prolif. 120 hr (Ymin-Obs)” value is recorded as 13.08.

Consider `O=C1CCC(N2Cc3cc(O[C@H]4CCN(Cc5cc6ccc(F)cc6cn5)C4)ccc3C2=O)C(=O)N1` (stereo partly drawn) [3-(5-{[(3S)-1-[(7-fluoroisoquinolin-3-yl)methyl]pyrrolidin-3-yl]oxy}-1-oxo-2,3-dihydro-1H-isoindol-2-yl)piperidine-2,6-dione], for which, at WEE1, the “293T-LentiX WEE1-ePL Degradation 4 hr (Ymin)” value came out at 28.82 and the DC50 turned out to be 4.93 nM. Further, in the test with MKN45 cells, the half-maximal effective concentration (EC50) is 24.8 nM and the “MKN45 Cell Prolif. 120 hr (Ymin-Obs)” value is reported as 10.88.

For the compound `COc1ccc2cc(CN3CC[C@H](Oc4ccc5c(c4)CN(C4CCC(=O)NC4=O)C5=O)C3)nnc2c1` (stereo partly drawn) [3-(5-{[(3S)-1-[(7-methoxycinnolin-3-yl)methyl]pyrrolidin-3-yl]oxy}-1-oxo-2,3-dihydro-1H-isoindol-2-yl)piperidine-2,6-dione], on WEE1, the “293T-LentiX WEE1-ePL Degradation 4 hr (Ymin)” value worked out at 28 and the DC50 was determined as 5.48 nM. In addition, in the test on MKN45 cells, the concentration for a half-maximal effect (EC50) is 12.4 nM and the “MKN45 Cell Prolif. 120 hr (Ymin-Obs)” value is on record as 7.52.

For `CN1CCc2cc(CN3CC[C@H](Oc4ccc5c(c4)CN(C4CCC(=O)NC4=O)C5=O)C3)cnc2C1` (stereo partly drawn) [3-(5-{[(3S)-1-[(7-methyl-5,6,7,8-tetrahydro-1,7-naphthyridin-3-yl)methyl]pyrrolidin-3-yl]oxy}-1-oxo-2,3-dihydro-1H-isoindol-2-yl)piperidine-2,6-dione], at WEE1, the “293T-LentiX WEE1-ePL Degradation 4 hr (Ymin)” value is on record as 34 and the DC50 was 65.1 nM. Further, in the test on MKN45 cells, the concentration for a half-maximal effect (EC50) amounted to 425 nM and the “MKN45 Cell Prolif. 120 hr (Ymin-Obs)” value was 11.9.

For the compound `CN1CCc2c(cncc2CN2CC[C@H](Oc3ccc4c(c3)CN(C3CCC(=O)NC3=O)C4=O)C2)C1` (stereo partly drawn) [3-(5-{[(3S)-1-[(7-methyl-5,6,7,8-tetrahydro-2,7-naphthyridin-4-yl)methyl]pyrrolidin-3-yl]oxy}-1-oxo-2,3-dihydro-1H-isoindol-2-yl)piperidine-2,6-dione], on WEE1, the “293T-LentiX WEE1-ePL Degradation 4 hr (Ymin)” value is recorded as 68 and the DC50 amounted to 558 nM. For the same compound, in the test with MKN45 cells, the EC50 is over 10000 nM and the “MKN45 Cell Prolif. 120 hr (Ymin-Obs)” value is recorded as 84.06.

Regarding `Cc1ccc2cc(CN3CC[C@H](Oc4ccc5c(c4)CN(C4CCC(=O)NC4=O)C5=O)C3)ncc2c1` (stereo partly drawn) [3-(5-{[(3S)-1-[(7-methylisoquinolin-3-yl)methyl]pyrrolidin-3-yl]oxy}-1-oxo-2,3-dihydro-1H-isoindol-2-yl)piperidine-2,6-dione], at WEE1, the “293T-LentiX WEE1-ePL Degradation 4 hr (Ymin)” value is given as 32.315 and the DC50 was determined as 12.2 nM. In addition, in the test on MKN45 cells, the EC50 turned out to be 70.7 nM and the “MKN45 Cell Prolif. 120 hr (Ymin-Obs)” value was 15.68.

On to `Cc1ccc2cc(CN3CC[C@H](Oc4ccc5c(c4)CN(C4CCC(=O)NC4=O)C5=O)C3)cc(F)c2n1` (stereo partly drawn) [3-(5-{[(3S)-1-[(8-fluoro-2-methylquinolin-6-yl)methyl]pyrrolidin-3-yl]oxy}-1-oxo-2,3-dihydro-1H-isoindol-2-yl)piperidine-2,6-dione], for which, on WEE1, the “293T-LentiX WEE1-ePL Degradation 4 hr (Ymin)” value is 25.35 and the DC50 came out at 1.04 nM. In the test with MKN45 cells, the EC50 turned out to be 3.2 nM and the “MKN45 Cell Prolif. 120 hr (Ymin-Obs)” value stood at 7.555.
